Measured values reported in patent publication USRE34480E, “Naphthalocyanine compounds” (Yamamoto Kagaku Gosei Co., Ltd., priority 1983, dated 1993).
Where two headings read alike, the source gives them in different places.

What was measured:
Solubility in toluene = assay type: physicochemical; settings: for Solubility in Toluene: 1 g in 5 ml toluene, ultrasonic shaking 50° C. 10 min, then room temperature 30 min, filtered; for residue (solubility measurement in toluene): residue behind the printed solubility
Procedure: In a 20 ml test tube were placed 1 g of a naphthalocyanine compound and 5 ml of toluene. After the tube was tightly stoppered, the content was subjected to ultrasonic shaking at 50° C. for 10 min. Then, the tube was allowed to stand at room temperature for 30 min. and the content was filtered. The filtrate was concentrated to dryness. The solubility of the naphthalocyanine in toluene was calculated using the following equation. [formula] R1, R2, and R3 and R4 of naphthalocyanine compounds of the present invention can bond to 6 to 7 positions of all naphthalene nuclei of naphthalocyanine. Each of these groups can be a mixed group.

[1] = Near infrared absorption spectrum in toluene (largest absorption peak, absorptivity coefficient); assay type: physicochemical
Description: It is to be noted that the naphthalocyanine compounds according to the present invention are not restricted to the compounds shown in Table 2.
Near infrared absorption spectrum for toluene solution: […]

Substance | Solubility in Toluene (Solubility in toluene) [%] | Absorptivity coefficient (log ε) [1] | Wavelength at largest absorption peak [1] [nm] | Absorptivity coefficient (log ε) ([1]; listed as tert-amyl Cu) | residue (solubility measurement in toluene) (Solubility in toluene) [g] | Solubility in organic solvents (in words) (Solubility in toluene; organic solvents, compared with tert-butyl analogue or in general)
copper tetra-tert-amylnaphthalocyanine [Example 2] | 7 | – | 771 | 5.24 | – | –
tetra-tert, sec-mixed amylvanadylnaphthalocyanine [Example 3] | 7 | 5.32 | 809 | – | 0.6 | –
tetra-tert-amylvanadylnaphthalocyanine [Example 1] | 6 | 5.37 | 808 | – | 0.6 | –

Second part, led by results:

Solubility in Toluene (Solubility in toluene) [%] | Absorptivity coefficient (log ε) [1] | Wavelength at largest absorption peak [1] [nm] | Absorptivity coefficient (log ε) ([1]; listed as tert-amyl Cu) | residue (solubility measurement in toluene) (Solubility in toluene) [g] | Substance | Solubility in organic solvents (in words) (Solubility in toluene; organic solvents, compared with tert-butyl analogue or in general)
7 | 5.09 | 805 | – | – | Indium tetra-tert, sec-mixed amylnaphthalocyanine [Example 4] | –
2 | – | – | – | – | tetra-6-tert-butylvanadylnaphthalocyanine [reference compound] | much lower solubility in organic solvents
11 | 5.27 | 809 | – | – | tetra-tert-heptylvanadylnaphthalocyanine [Example 5] | –
